Here are results for 31 compounds from patent publication EP1680415B1, “PYRROLIDINYL UREA DERIVATIVES AS ANGIOGENESIS INHIBITORS” (ABBOTT LABORATORIES, priority 2003, dated 2005).

Usually inhibition stands for the drop in the measured response relative to a control, in per cent. A lower inhibition goes with a weak effect.

In one test the test system is HMVEC. Description: human microvascular endothelial (HMVEC) migration assay. In kind it is cell-based. As to conditions: Homo sapiens; Inhibition of HMVEC migration; 0.1 nM; activators 15 ng/mL bFGF/VEGF; 4 hours at 37 °C; compared to a positive control. The procedure:
The human microvascular endothelial (HMVEC) migration assay was run according to the procedure of S. S. Tolsma, O. V. Volpert, D. J. Good, W. F. Frazier, P. J. Polverini and N. Bouck, J. Cell Biol. 122, 497-511 (1993).
The HMVEC migration assay was carried out using Human Microvascular Endothelial Cells-Dermal (single donor) and Human Microvascular Endothelial Cells, (neonatal). The BCE or HMVEC cells were starved overnight in DME containing 0.01% bovine serum albumin (BSA). Cells were then harvested with trypsin and resuspended in DME with 0.01 % BSA at a concentration of 1.5 X 10^6 cells per mL. Cells were added to the bottom of a 48 well modified Boyden chamber (Nucleopore Corporation, Cabin John, MD). The chamber was assembled and inverted, and cells were allowed to attach for 2 hours at 37 °C to polycarbonate chemotaxis membranes (5 µm pore size) that had been soaked in 0.01 % gelatin overnight and dried. The chamber was then reinverted, and test substances (total volume of 50 µL), including activators, 15 ng/mL bFGF/VEGF, were added to the wells of the upper chamber. The apparatus was incubated for 4 hours at 37 °C. Membranes were recovered, fixed and stained (Diff Quick, Fisher Scientific) and the number of cells that had migrated to the upper chamber per 3 high power fields counted. Background migration to DME + […] was subtracted and the data reported as the number of cells migrated per 10 high power fields (400X) or, when results from multiple experiments were combined, as the percent inhibition of migration compared to a positive control.
For the compound `COCCN(C(=O)N[C@@H]1CCN(C(=O)c2ccc(C)nc2Cl)C1)C(C)C` [Example 35, N'-{(3R)-1-[(2-chloro-6-methylpyridin-3-yl)carbonyl]pyrrolidin-3-yl}-N-isopropyl-N-(2-methoxyethyl)urea], the inhibition at 0.0001 µM was determined as 70%.
Compound `CCOCCCNC(=O)N[C@@H]1CCN(C(=O)c2ccc(C)nc2Cl)C1` [Example 38, N-{(3R)-1-[(2-chloro-6-methylpyridin-3-yl)carbonyl]pyrrolidin-3-yl}-N'-(3-ethoxypropyl)urea] had an inhibition at 0.0001 µM of 99%.
The compound `Cc1ccc(C(=O)N2CC[C@@H](NC(=O)NCCCOCC(C)C)C2)c(Cl)n1` [Example 40, N-{(3R)-1-[(2-chloro-6-methylpyridin-3-yl)carbonyl]pyrrolidin-3-yl}-N'-(3-isobutoxypropyl)urea] came in with an inhibition at 0.0001 µM of 72%.
The same measure, in the same setting: next, `CSCCCNC(=O)N[C@@H]1CCN(C(=O)c2ccc(C)nc2Cl)C1` [Example 41, N-{(3R)-1-[(2-chloro-6-methylpyridin-3-yl)carbonyl]pyrrolidin-3-yl}-N'-[3-(methylthio)propyl]urea]: 87%; `Cc1ccc(C(=O)N2CC[C@@H](NC(=O)N(Cc3ccccc3)Cc3ccccc3)C2)c(Cl)n1` [Example 43, N,N-dibenzyl-N'-{(3R)-1-[(2-chloro-6-methylpyridin-3-yl)carbonyl]pyrrolidin-3-yl}urea]: 73%; `Cc1ccc(C(=O)N2CC[C@@H](NC(=O)N(C)CCc3ccccc3)C2)c(Cl)n1` [Example 44, N'-{(3R)-1-[(2-chloro-6-methylpyridin-3-yl)carbonyl]pyrrolidin-3-yl}-N-methyl-N-(2-phenylethyl)urea]: 80%.
Same read-out and setting: next, `COc1ccc(CCN(C)C(=O)N[C@@H]2CCN(C(=O)c3ccc(C)nc3Cl)C2)cc1OC` [Example 45, N'-{(3R)-1-[(2-chloro-6-methylpyridin-3-yl)carbonyl]pyrrolidin-3-yl}-N-[2-(3,4-dimethoxyphenyl)ethyl]-N-methylurea]: 82%; `Cc1ccc(C(=O)N2CC[C@@H](NC(=O)N3CCC(Cc4ccccc4)CC3)C2)c(Cl)n1` [Example 46, 4-benzyl-N-{(3R)-1-[(2-chloro-6-methylpyridin-3-yl)carbonyl]pyrrolidin-3-yl}piperidine-1-carboxamide]: 99%; `CCN(CC)CCN(C)C(=O)N[C@@H]1CCN(C(=O)c2ccc(C)nc2)C1` [Example 49, N-[2-(diethylamino)ethyl]-N-methyl-N'-{(3R)-1-[(6-methylpyridin-3-yl)carbonyl]pyrrolidin-3-yl}urea]: 65%.
The compound `CCN(Cc1ccccc1)C(=O)N[C@@H]1CCN(C(=O)c2ccc(C)nc2)C1` [Example 50, N-benzyl-N-ethyl-N'-{(3R)-1-[(6-methylpyridin-3-yl)carbonyl]pyrrolidin-3-yl} urea] displayed an inhibition at 0.0001 µM of 76%.
Still for that read-out and setting: next, `Cc1ccc(C(=O)N2CC[C@@H](NC(=O)N(Cc3ccccc3)Cc3ccccc3)C2)cn1` [Example 53, N,N-dibenzyl-N'-{(3R)-1-[(6-methylpyridin-3-yl)carbonyl]pyrrolidin-3-yl} urea]: 78%; `Cc1ccc(C(=O)N2CC[C@@H](NC(=O)N3CCC(n4c(=O)[nH]c5ccccc54)CC3)C2)cn1` [Example 56, N-{(3R)-1-[(6-methylpyridin-3-yl)carbonyl]pyrrolidin-3-yl}-4-(2-oxo-2,3-dihydro-1H-benzimidazol-1-yl)piperidine-1-carboxamide]: 86%; `CCN1CCN(C(=O)N[C@@H]2CCN(C(=O)c3ccc(C)nc3)C2)CC1` [Example 57, 4-ethyl-N-{(3R)-1-[(6-methylpyridin-3-yl)carbonyl]pyrrolidin-3-yl}piperazine-1-carboxamide]: 86%.
On the same count and under the same terms, next, `Cc1ccc(C(=O)N2CC[C@@H](NC(=O)N3CCN(Cc4ccccc4)CC3)C2)cn1` [Example 58, 4-benzyl-N-{(3R)-1-[(6-methylpyridin-3-yl)carbonyl]pyrrolidin-3-yl}piperazine-1-carboxamide]: 71%.
On the same count and under the same terms, next, `CCCN(C)C(=O)N[C@@H]1CCN(C(=O)c2ccc(C)nc2)C1` [Example 59, N-methyl-N'-{(3R)-1-[(6-methylpyridin-3-yl)carbonyl]pyrrolidin-3-yl}-N-propylurea]: 93%; `Cc1ccc(C(=O)N2CC[C@@H](NC(=O)N(C)CC(C)C)C2)cn1` [Example 60, N-isobutyl-N-methyl-N'-{(3R)-1-[(6-methylpyridin-3-yl)carbonyl]pyrrolidin-3-yl}urea]: 67%; `Cc1ccc(C(=O)N2CC[C@@H](NC(=O)N(C)CCC(C)C)C2)cn1` [Example 61, N-methyl-N-(3-methylbutyl)-N'-{(3R)-1-[(6-methylpyridin-3-yl)carbonyl]pyrrolidin-3-yl}urea]: 66%.
For the compound `C#CCN(C)C(=O)N[C@@H]1CCN(C(=O)c2ccc(C)nc2)C1` [Example 62, N-methyl-N'-{(3R)-1-[(6-methylpyridin-3-yl)carbonyl]pyrrolidin-3-yl}-N-prop-2-ynylurea], the inhibition at 0.0001 µM was 54%.
The compound `CCCN(CC)C(=O)N[C@@H]1CCN(C(=O)c2ccc(C)nc2)C1` [Example 63, N-ethyl-N'-{(3R)-1-[(6-methylpyridin-3-yl)carbonyl]pyrrolidin-3-yl}-N-propylurea] gave an inhibition at 0.0001 µM of 72%.
Still for that read-out and setting: the figure for `CCCN(C(=O)N[C@@H]1CCN(C(=O)c2ccc(C)nc2)C1)C(C)C` [Example 64, N-isopropyl-N'-{(3R)-1-[(6-methylpyridin-3-yl)carbonyl]pyrrolidin-3-yl}-N-propylurea] is 70%.
The same measure, in the same setting: the figure for `CCCCN(CCCC)C(=O)N[C@@H]1CCN(C(=O)c2ccc(C)nc2)C1` [Example 66, N,N-dibutyl-N'-{(3R)-1-[(6-methylpyridin-3-yl)carbonyl]pyrrolidin-3-yl} urea] is 84%.

The test is the same for the next values; noted with them: Homo sapiens; Inhibition of HMVEC migration; 1 nM; activators 15 ng/mL bFGF/VEGF; 4 hours at 37 °C; compared to a positive control.
Consider `CCCCN(CCCC)C(=O)N[C@@H]1CCN(C(=O)c2ccc(C)nc2Cl)C1` [Example 34, N,N-dibutyl-N'-{(3R)-1-[(2-chloro-6-methylpyridin-3-yl)carbonyl]pyrrolidin-3-yl}urea], for which the inhibition at 0.001 µM turned out to be 50%.
On to `Cc1ccc(C(=O)N2CC[C@@H](NC(=O)NCCCOC(C)C)C2)c(Cl)n1` [Example 39, N-{(3R)-1-[(2-chloro-6-methylpyridin-3-yl)carbonyl]pyrrolidin-3-yl}-N'-(3-isopropoxypropyl)urea], for which 0.001 µM produced 72% inhibition.
Turning to `Cc1ccc(C(=O)N2CC[C@@H](NC(=O)N3CCC(n4c(=O)[nH]c5ccccc54)CC3)C2)c(Cl)n1` [Example 47, N-{(3R)-1-[(2-chloro-6-methylpyridin-3-yl)carbonyl]pyrrolidin-3-yl}-4-(2-oxo-2,3-dihydro-1H-benzimidazol-1-yl)piperidine-1-carboxanude], the inhibition at 0.001 µM came to 80%.
Still for that read-out and setting: the figure for `Cc1ccc(C(=O)N2CC[C@@H](NC(=O)N3CCN(c4ccccc4)CC3)C2)c(Cl)n1` [Example 48, N-{(3R)-1-[(2-chloro-6-methylpyridin-3-yl)carbonyl]pyrrolidin-3-yl}-4-phenylpiperazine-1-carboxamide] is 78%; for `Cc1ccc(C(=O)N2CC[C@@H](NC(=O)N(Cc3ccccc3)C(C)C)C2)cn1` [Example 51, N-benzyl-N-isopropyl-N'-{(3R)-1-[(6-methylpyridin-3-yl)carbonyl]pyrrolidin-3-yl}urea] it is 60%; for `CCCCN(Cc1ccccc1)C(=O)N[C@@H]1CCN(C(=O)c2ccc(C)nc2)C1` [Example 52, N-benzyl-N-butyl-N'-{(3R)-1-[(6-methylpyridin-3-yl)carbonyl]pyrrolidin-3-yl}urea] it is 80%.
Same read-out and setting: next, `Cc1ccc(C(=O)N2CC[C@@H](NC(=O)N(CCc3ccccc3)Cc3ccccc3)C2)cn1` [Example 54, N-benzyl-N'-{(3R)-1-[(6-methylpyridin-3-yl)carbonyl]pyrrolidin-3-yl}-N-(2-phenylethyl)urea]: 78%; `CCN(CC)C(=O)C1CCCN(C(=O)N[C@@H]2CCN(C(=O)c3ccc(C)nc3)C2)C1` (stereo partly drawn) [Example 55, N^3,N^3-diethyl-N^1-{(3R)-1-[(6-methylpyridin-3-yl)carbonyl]pyrrolidin-3-yl}piperidine-1,3-dicarboxamide]: 93%.
Same read-out and setting: next, `CCCN(C(=O)N[C@@H]1CCN(C(=O)c2ccc(C)nc2)C1)C(C)CC` (stereo partly drawn) [Example 65, N-(sec-butyl)-N'-{(3R)-1-[(6-methylpyridin-3-yl)carbonyl]pyrrolidin-3-yl}-N-propylurea]: 98%.

Still in this test, the particulars now being: Inhibition of HMVEC migration; 0.1 nM; activators 15 ng/mL bFGF/VEGF; 4 hours at 37 °C; compared to a positive control.
Take `Cc1ccc(C(=O)N2CC[C@@H](NC(=O)N[C@@H](CO)c3ccccc3)C2)c(Cl)n1` [Example 37, N-{(3R)-1-[(2-chloro-6-methylpyridin-3-yl)carbonyl]pynolidin-3-yl}-N'-[(1R)-2-hydroxy-1-phenylethyl]urea]: the “% Inhibition @ 0.1 nM” value was determined as 73%.
